# Results published in ChEMBL document CHEMBL3046524, “Synthesis and biological evaluation of N 1,N 2-bis-[4-(t-amino)-2-butynyl]phthalamides as oxotremorine and acetylcholine antagonists” (Med Chem Res, 2013).
# Activity calls are given as the source filed them. The calls are words filed in the database; no cut-off is given here.
# Key:
# [1] = tested on: Ileum; assay: Ionotropic activity in Cavia porcellus (guinea pig) ileum assessed as inhibition of acetylcholine-induced contraction after 15 min by physiographic analysis; format: functional, tissue-based; details: 0.25 h, read-out: pA2 (converted)
# [2] = tested on: Ileum; assay: Ionotropic activity in Cavia porcellus (guinea pig) ileum assessed as concentration required to inhibit acetylcholine-induced contraction after 15 min by physiographic analysis; format: functional
# [3] = tested on: Mus musculus; assay: Antitremor activity in ip dosed Mus musculus (mouse) assessed as concentration required to inhibit oxotremorine-induced tremor effect administered 15 to 20 min prior to oxotremorine challenge measured 15 to 20 min post oxotremorine challenge; format: functional
# [4] = tested on: Mus musculus; assay: Antitremor activity in ip dosed Mus musculus (mouse) assessed as inhibition of oxotremorine-induced tremor effect administered 15 to 20 min prior to oxotremorine challenge measured 15 to 20 min post oxotremorine challenge; format: functional, organism-based
SMILES,Kb [1] [nM],INH [2],INH [3] [µmol/kg],inhibition [4]
O=C1c2ccccc2C(=O)N1CC#CCN1CCCCC1,1580,1.6 ×10⁻⁶ mol/L,7.6,
CC1CCCCN1CC#CCNC(=O)c1ccccc1C(=O)NCC#CCN1CCCCC1C (stereo not given),2000,1.2 ×10⁻⁶ mol/L,,
CC1CCCC(C)N1CC#CCNC(=O)c1ccccc1C(=O)NCC#CCN1C(C)CCCC1C (stereo not given),1580,3 ×10⁻⁶ mol/L,,inactive
CC1CCCCN1CC#CCN1C(=O)c2ccccc2C1=O (stereo not given),1260,1.2 ×10⁻⁶ mol/L,9.6,
O=C(NCC#CCN1CCCCC1)c1ccccc1C(=O)NCC#CCN1CCCCC1,2510,1.6 ×10⁻⁶ mol/L,8,
O=C1c2ccccc2C(=O)N1CC#CCN1CCCCCCC1,794,8 ×10⁻⁷ mol/L,2.4,
CN1[C@@H]2CC[C@H]1C[C@@H](OC(=O)C(CO)c1ccccc1)C2 (stereo not given in full) [ATROPINE],3.98,3.7 ×10⁻⁹ mol/L,2.8,
O=C(NCC#CCN1CCCCCCC1)c1ccccc1C(=O)NCC#CCN1CCCCCCC1,1260,5 ×10⁻⁶ mol/L,,
CC1CCCC(C)N1CC#CCN1C(=O)c2ccccc2C1=O (stereo not given),2000,2 ×10⁻⁶ mol/L,,inactive
